In PubChem BioAssay AID248 (DTP/NCI, 2004):
Several values for one entry are separate records, joined by “and”; a condition that tells them apart may be missing. Equal entries are not always repeated. Toxic doses and inconclusive results are not listed. Rule as the data show it: active = T/C of 150% or more; inactive = T/C below 125%.

Tested on: L1210 leukemia ip in BDF1 mice, survival T/C
Assay: NCI In Vivo Anticancer Drug Screen. Data for tumor model L1210 Leukemia (intraperitoneal) in B6D2F1 (BDF1) mice
Conditions: endpoint: mean survival time, higher = longer survival
Outline: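 Antitumor effect is assessed in tumor-bearing animals. Survival in the compound arm is compared with a vehicle-dosed control arm and expressed as their quotient.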

[1] = dose: 100.0 mg/kg/injection, schedule: Q01DX001 (ip), vehicle: carboxymethylcellulose (CMC)
[2] = dose: 200.0 mg/kg/injection, schedule: Q01DX001 (ip), vehicle: carboxymethylcellulose (CMC)
[3] = dose: 100.0 mg/kg/injection, schedule: Q01DX009 (ip), vehicle: Klucel (hydroxypropylcellulose) (HPC)
[4] = dose: 100.0 mg/kg/injection, schedule: Q04DX003 (ip), vehicle: Klucel (hydroxypropylcellulose) (HPC)
[5] = dose: 200.0 mg/kg/injection, schedule: Q01DX009 (ip), vehicle: Klucel (hydroxypropylcellulose) (HPC)
[6] = dose: 200.0 mg/kg/injection, schedule: Q04DX003 (ip), vehicle: Klucel (hydroxypropylcellulose) (HPC)
[7] = dose: 400.0 mg/kg/injection, schedule: Q01DX009 (ip), vehicle: Klucel (hydroxypropylcellulose) (HPC)
[8] = dose: 400.0 mg/kg/injection, schedule: Q04DX003 (ip), vehicle: Klucel (hydroxypropylcellulose) (HPC)
[9] = dose: 100.0 mg/kg/injection, schedule: Q01DX001 (ip), vehicle: saline with Tween-80
[10] = dose: 200.0 mg/kg/injection, schedule: Q01DX001 (ip), vehicle: saline with Tween-80
[11] = dose: 100.0 mg/kg/injection, schedule: Q04DX002 (ip), vehicle: saline with Tween-80
[12] = dose: 200.0 mg/kg/injection, schedule: Q04DX002 (ip), vehicle: saline with Tween-80
[13] = dose: 100.0 mg/kg/injection, schedule: Q01DX001 (ip), vehicle: saline
[14] = dose: 200.0 mg/kg/injection, schedule: Q01DX001 (ip), vehicle: saline
[15] = dose: 400.0 mg/kg/injection, schedule: Q01DX001 (ip), vehicle: saline
[16] = dose: 75.0 mg/kg/injection, schedule: Q01DX001 (ip), vehicle: saline

Measured: T/C

C=C1C(=O)OC2/C=C(\C)CC/C=C(/C=O)C(OC)C(OC(=O)C(C)C)C12 (centres undefined)
inactive: dose: 6.25 mg/kg/injection, schedule: Q01DX009 (ip), vehicle: Klucel (hydroxypropylcellulose) (HPC) 95 % of control | dose: 12.5 mg/kg/injection, schedule: Q01DX009 (ip), vehicle: Klucel (hydroxypropylcellulose) (HPC) 100 % of control | dose: 25.0 mg/kg/injection, schedule: Q01DX009 (ip), vehicle: Klucel (hydroxypropylcellulose) (HPC) 101 % of control

COc1ccc(C(=O)OCCN(CCOC(=O)c2ccc(OC)cc2)c2c[nH]c(=O)[nH]c2=O)cc1
inactive: dose: 50.0 mg/kg/injection, schedule: Q01DX001 (ip), vehicle: carboxymethylcellulose (CMC) 106 % of control | [1] 93 % of control | [2] 95 % of control | dose: 400.0 mg/kg/injection, schedule: Q01DX001 (ip), vehicle: carboxymethylcellulose (CMC) 93 % of control

C=CCC(C(C)=O)C(=O)OCC (centres undefined)
inactive: [3] 100 % of control | [4] 93 % of control | [5] 96 % of control | [6] 104 % of control | [7] 96 % of control | [8] 97 % of control

CCCCCCCC(C(=O)O)C(C)C (centres undefined)
inactive: [9] 94 % of control | [10] 106 % of control | dose: 400.0 mg/kg/injection, schedule: Q01DX001 (ip), vehicle: saline with Tween-80 105 % of control

Cc1cc(C)cc(OC(=O)Nc2ccccc2C)c1
inactive: [11] 106 % of control | [12] 91 % of control

Cc1cccc[n+]1Cc1ccccc1
inactive: dose: 9.38 mg/kg/injection, schedule: Q01DX001 (ip), vehicle: saline 100 % of control | dose: 18.75 mg/kg/injection, schedule: Q01DX001 (ip), vehicle: saline 97 % of control | dose: 37.5 mg/kg/injection, schedule: Q01DX001 (ip), vehicle: saline 101 % of control

CC[N+]([O-])(CC)CCNc1ccc(CO)c2sc3ccccc3c(=O)c12
inactive: dose: 50.0 mg/kg/injection, schedule: Q01DX009 (ip), vehicle: saline 92 % of control | dose: 100.0 mg/kg/injection, schedule: Q01DX009 (ip), vehicle: saline 121 % of control

CCCCCCCCCCCCCCSSCCCCCCCCCCCCCC
inactive: [13] 98 % of control | [14] 92 % of control | [15] 96 % of control

CC(=O)OC(C(=O)O)C(OC(C)=O)C(=O)NCCO (centres undefined)
inactive: dose: 100.0 mg/kg/injection, schedule: Q01DX001 (ip), vehicle: water 94 % of control | dose: 100.0 mg/kg/injection, schedule: Q04DX003 (ip), vehicle: water 87 % of control | dose: 200.0 mg/kg/injection, schedule: Q01DX001 (ip), vehicle: water 96 % of control | dose: 200.0 mg/kg/injection, schedule: Q04DX003 (ip), vehicle: water 95 % of control | dose: 400.0 mg/kg/injection, schedule: Q01DX001 (ip), vehicle: water 94 % of control | dose: 400.0 mg/kg/injection, schedule: Q04DX003 (ip), vehicle: water 97 % of control

O=C1OC2CCCCC1CC2 (centres undefined)
inactive: [13] 108 % of control | [14] 110 % of control | [15] 87 % of control

NNC(=O)C(Sc1ccccc1)c1ccccc1 (centres undefined)
inactive: [4] 95 % of control | [6] 98 % of control | [8] 101 % of control

COc1ccc(NC(=O)OC/C=C/c2ccccc2)c(OC)c1
inactive: [3] 90 % of control | [5] 87 % of control

COC(OC)C1C=CC=CC=C1
inactive: dose: 200.0 mg/kg/injection, schedule: Q01DX009 (ip), vehicle: saline with Tween-80 95 % of control

O=C(Nc1ccc(Nc2ccncc2)cc1)c1ccc(Nc2ccnc3ccc([N+](=O)[O-])cc23)cc1
inactive: [3] 92 % of control | [4] 101 % of control | [5] 109 % of control | [6] 97 % of control | [7] 95 % of control | [8] 108 % of control

BrCC1OCC2(CO1)COC(CBr)OC2 (centres undefined)
inactive: [4] 96 % of control | [6] 104 % of control

CC12CCC(/C(=C/N(O)/C=C3\C(=O)C4(C)CCC3C4(C)C)C1=O)C2(C)C
inactive: [16] 96 % of control | dose: 150.0 mg/kg/injection, schedule: Q01DX001 (ip), vehicle: saline 91 % of control | dose: 300.0 mg/kg/injection, schedule: Q01DX001 (ip), vehicle: saline 94 % of control

CCO/C=C1\SC(=S)N(c2cccc(OC)c2)C1=O
inactive: dose: 117.0 mg/kg/injection, schedule: Q01DX009 (ip), vehicle: saline with Tween-80 116 % of control | dose: 176.0 mg/kg/injection, schedule: Q01DX009 (ip), vehicle: saline with Tween-80 108 % of control | dose: 264.0 mg/kg/injection, schedule: Q01DX009 (ip), vehicle: saline with Tween-80 121 % of control | dose: 400.0 mg/kg/injection, schedule: Q01DX009 (ip), vehicle: saline with Tween-80 117 % of control

Cc1ccc([N+](=O)[O-])cc1O
inactive: dose: 25.0 mg/kg/injection, schedule: Q04DX003 (ip), vehicle: saline 98 % of control | dose: 50.0 mg/kg/injection, schedule: Q04DX003 (ip), vehicle: saline 102 % of control | [13] 97 % of control | dose: 100.0 mg/kg/injection, schedule: Q04DX003 (ip), vehicle: saline 97 % of control

CC(=O)c1c(C)cc2cc(C)cc(O)c2c1O
inactive: [4] 97 % of control | [6] 101 % of control | [8] 101 % of control

O=[N+]([O-])c1ccc(-c2cc3ccccc3[n+]([O-])c2)cc1
inactive: [13] 98 % of control | [14] 101 % of control | [15] 101 % of control

Cc1ccc(CNC(=O)NCCCCCCNC(=O)NCc2ccc(C)cc2)cc1
inactive: dose: 100.0 mg/kg/injection, schedule: Q01DX009 (ip), vehicle: other 95 % of control | dose: 200.0 mg/kg/injection, schedule: Q01DX009 (ip), vehicle: other 100 % of control | dose: 400.0 mg/kg/injection, schedule: Q01DX009 (ip), vehicle: other 100 % of control

Brc1ccc[n+](Cc2ccccc2)c1
inactive: [16] 98 % of control

O=C(Oc1ccccc1)C1OC1c1ccccc1 (centres undefined)
inactive: dose: 100.0 mg/kg/injection, schedule: Q04DX003 (ip), vehicle: alcohol 103 % of control | dose: 200.0 mg/kg/injection, schedule: Q04DX003 (ip), vehicle: alcohol 98 % of control | dose: 400.0 mg/kg/injection, schedule: Q04DX003 (ip), vehicle: alcohol 105 % of control

C1OC1[C@@H]1CC[C@H]1C1CO1 (some centres undefined)
inactive: dose: 50.0 mg/kg/injection, schedule: Q01DX001 (ip), vehicle: saline 98 % of control and 112 % of control | dose: 51.1 mg/kg/injection, schedule: Q01DX Z (ip), vehicle: carboxymethylcellulose (CMC) 103 % of control | dose: 51.1 mg/kg/injection, schedule: Q01DX Z (ip), vehicle: methylcellulose (MC) 109 % of control | dose: 76.6 mg/kg/injection, schedule: Q01DX Z (ip), vehicle: carboxymethylcellulose (CMC) 114 % of control | dose: 76.6 mg/kg/injection, schedule: Q01DX Z (ip), vehicle: methylcellulose (MC) 118 % of control | dose: 88.0 mg/kg/injection, schedule: Q01DX001 (ip), vehicle: saline 107 % of control | [13] 112 % of control and 118 % of control | dose: 115.0 mg/kg/injection, schedule: Q01DX Z (ip), vehicle: methylcellulose (MC) 106 % of control | dose: 133.0 mg/kg/injection, schedule: Q01DX001 (ip), vehicle: saline 109 % of control

O=C1Cc2ccccc2CNN1
inactive: dose: 100.0 mg/kg/injection, schedule: Q01DX001 (ip), vehicle: other 90 % of control | dose: 400.0 mg/kg/injection, schedule: Q01DX001 (ip), vehicle: other 102 % of control

O=C1c2cccc3cc([N+](=O)[O-])cc(c23)C(=O)N1C(Cc1ccccc1)c1ccccc1 (centres undefined)
inactive: [11] 103 % of control | [12] 95 % of control | dose: 400.0 mg/kg/injection, schedule: Q04DX002 (ip), vehicle: saline with Tween-80 103 % of control

O=C(CC=C(c1ccccc1)c1ccccc1)Nc1ccccc1
inactive: [9] 90 % of control | [10] 87 % of control

O=c1[nH]cnc2c1ncn2C1CCC(CO)C1 (centres undefined)
inactive: [1] 100 % of control | dose: 177.0 mg/kg/injection, schedule: Q01DX001 (ip), vehicle: carboxymethylcellulose (CMC) 98 % of control | [2] 96 % of control | dose: 266.0 mg/kg/injection, schedule: Q01DX001 (ip), vehicle: carboxymethylcellulose (CMC) 98 % of control | dose: 600.0 mg/kg/injection, schedule: Q01DX001 (ip), vehicle: carboxymethylcellulose (CMC) 100 % of control
